Patent US5925664A, “Method for treating ocular hypertension and glaucoma” (Sankyo Company, Limited, priority 1994, dated 1999)

System: ocular hypertension model
Experiment: Ocular tension lowering effect in rabbit ocular hypertension model (eye drops)
Format: in vivo, New Zealand white rabbits
Details: applied concentration 0.2%; 50 μl by dropping; over 2 hours
Experimental: New Zealand white rabbits each weighing 2 to 3 kg were used.
According to the method reported by Kurihara et al. [Ophthalmologic Pharmacology 4, 62-64, (1990)], an ocular hypertension model was prepared to examine the ocular tension lowering effect of the test compounds. After general anaesthesia with urethane, the ocular tension of the test rabbit was determined by use of a tonometer (Alcon Applanation Pneumatonography).
After a local anaesthetic was applied to the rabbit eye by dropping, 0.1 ml of 5% sodium chloride solution was injected into the vitreous body through a 30-gauge injection needle. At the time, 30 minutes after injection, when ocular hypertension was confirmed, 50 μl of a sample solution was applied by dropping. Then, the ocular tension was determined over 2 hours at intervals of 30 minutes.
The area (AUC) between the ocular tension curve obtained from the control group (without drug application) and that obtained from the drug application group, and the maximum value of the lowered ocular tension were calculated to regard as the indices of ocular tension lowering effect.

Row | SMILES | AUC (area between the ocular tension curves of control group and drug application group) [mmHg · hr]
1 | CCCc1nc(CC)c(C(=O)O)n1Cc1ccc(-c2ccccc2-c2nn[nH]n2)cc1 [Compound D] | 6.21

Same assay, conditions: applied concentration 0.2%; 50 μl by dropping; over 2 hours at intervals of 30 minutes

Row | SMILES | Maximum value of the lowered ocular tension [mmHg]
2 | CCCc1nc(CC)c(C(=O)O)n1Cc1ccc(-c2ccccc2-c2nn[nH]n2)cc1 [Compound D] | 6.4

Same assay, conditions: applied concentration 1.0%; 50 μl by dropping; over 2 hours

Row | SMILES | AUC (area between the ocular tension curves of control group and drug application group) [mmHg · hr]
3 | CCCc1nc(C(C)(C)O)c(C(=O)O)n1Cc1ccc(-c2ccccc2C(=O)O)cc1 [Compound B] | 3.21
4 | CCCCc1nc(C(C)(C)O)c(C(=O)O)n1Cc1ccc(-c2ccccc2C(=O)O)cc1 [Compound E] | 4.90
5 | CCCc1nc(C(C)O)c(C(=O)O)n1Cc1ccc(-c2ccccc2-c2nn[nH]n2)cc1 (stereo not drawn) [Compound G] | 5.45
6 | CCCc1nc(C(C)(C)O)c(C(=O)O)n1Cc1ccc(-c2ccccc2-c2nn[nH]n2)cc1 [Compound A] | 11.18
7 | CCCc1nc(C(C)C)c(C(=O)O)n1Cc1ccc(-c2ccccc2-c2nn[nH]n2)cc1 [Compound C] | 3.98
8 | CCCc1nc(C(C)(C)O)c(C(=O)O)n1Cc1ccc(-c2ccccc2C(=O)C(=O)O)cc1 [Compound H] | 5.58
9 | CCc1nc2cccc(C(=O)O)c2n1Cc1ccc(-c2ccccc2C(=O)C(=O)O)cc1 [Compound I] | 5.33
10 | CCCc1nc(C(C)(C)O)c(C(=O)O)n1Cc1ccc(-c2nn[nH]n2)cc1 [Compound F] | 4.93
11 | CCCCc1nc(Cl)c(CO)n1Cc1ccc(-c2ccccc2-c2nnn[nH]2)cc1 [DUP 753, reference compound] | 0.28

Same assay, conditions: applied concentration 1.0%; 50 μl by dropping; over 2 hours at intervals of 30 minutes

Row | SMILES | Maximum value of the lowered ocular tension [mmHg]
12 | CCCc1nc(C(C)(C)O)c(C(=O)O)n1Cc1ccc(-c2ccccc2C(=O)O)cc1 [Compound B] | 2.6
13 | CCCCc1nc(C(C)(C)O)c(C(=O)O)n1Cc1ccc(-c2ccccc2C(=O)O)cc1 [Compound E] | 7.6
14 | CCCc1nc(C(C)O)c(C(=O)O)n1Cc1ccc(-c2ccccc2-c2nn[nH]n2)cc1 (stereo not drawn) [Compound G] | 8.6
15 | CCCc1nc(C(C)(C)O)c(C(=O)O)n1Cc1ccc(-c2ccccc2-c2nn[nH]n2)cc1 [Compound A] | 9.8
16 | CCCc1nc(C(C)C)c(C(=O)O)n1Cc1ccc(-c2ccccc2-c2nn[nH]n2)cc1 [Compound C] | 2.7
17 | CCCc1nc(C(C)(C)O)c(C(=O)O)n1Cc1ccc(-c2ccccc2C(=O)C(=O)O)cc1 [Compound H] | 8.6
18 | CCc1nc2cccc(C(=O)O)c2n1Cc1ccc(-c2ccccc2C(=O)C(=O)O)cc1 [Compound I] | 7.3
19 | CCCc1nc(C(C)(C)O)c(C(=O)O)n1Cc1ccc(-c2nn[nH]n2)cc1 [Compound F] | 4.7
20 | CCCCc1nc(Cl)c(CO)n1Cc1ccc(-c2ccccc2-c2nnn[nH]2)cc1 [DUP 753, reference compound] | 1.3

Same assay, conditions: applied concentration 3.0%; 50 μl by dropping; over 2 hours

Row | SMILES | AUC (area between the ocular tension curves of control group and drug application group) [mmHg · hr]
21 | CCCCc1nc(Cl)c(CO)n1Cc1ccc(-c2ccccc2-c2nnn[nH]2)cc1 [DUP 753, reference compound] | 2.38

Same assay, conditions: applied concentration 3.0%; 50 μl by dropping; over 2 hours at intervals of 30 minutes

Row | SMILES | Maximum value of the lowered ocular tension [mmHg]
22 | CCCCc1nc(Cl)c(CO)n1Cc1ccc(-c2ccccc2-c2nnn[nH]2)cc1 [DUP 753, reference compound] | 3.5

System: not given
Experiment: not given
Details: eye application; cited from earlier work

Row | SMILES | ocular tension lowering activity
23 | CCCCC(=O)N(Cc1ccc(-c2ccccc2-c2nnn[nH]2)cc1)[C@H](C(=O)O)C(C)C [CGP 48933] | showed ocular tension lowering activity
24 | CCCCC(=O)N(Cc1ccc(-c2ccccc2-c2nnn[nH]2)cc1)CC1(C(=O)O)CCCC1 [CGP 49870] | showed ocular tension lowering activity
